Consider 25 compounds from patent US10689378B2, “Triazolopyridine compounds and uses thereof” (Novartis AG, priority 2016, dated 2020).

In experiment [1] the target is T1, EED (1-441)-His protein (Homo sapiens, UniProt O75530).
T1 construct: 30 nM EED (1-441)-His protein
Briefly: EED-H3K27Me3 peptide competition binding assay by AlphaScreen. The note with it: EED-H3K27Me3 peptide competition, AlphaScreen; read-out: (a) IC50 EED Alphascreen binding Qualified. The method in brief: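 Serially diluted compound (12 points, 3-fold) incubated 20 min with 30 nM EED(1-441)-His and 15 nM biotin-H3K27Me3(19-33) peptide in 25 mM HEPES pH 8, 0.02% Tween-20, 0.5% BSA. Ni-chelate acceptor/streptavidin donor beads (10 μg/mL each) added, 1 h rt dark; 615 nm emission normalized to controls, dose-response fit for IC50.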

The target in experiment [2] is wild type PRC2 (wtPRC2) complex (Homo sapiens, UniProt O75530). Nature of the experiment: EED LC-MS assay (SAH production by PRC2). It is filed as biochemical. The note with it: PRC2 LC-MS assay; read-out: (b) IC50 EED LC-MS Qualified. Summed up: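 Pentameric PRC2 (EZH2, SUZ12, EED, Rbap48, AEBP), 12 nM final, preincubated 20 min with compound and SAM, then 1.5 μM biotinylated H3K27me0 peptide, 1 μM SAM, pH 8.0, 120 min at rt. SAH quantified by LC-MS/MS with d4-SAH; control-normalized activity fitted for IC50.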

Experiment [3] concerns H3K27 methylation in G401 cell. Nature of the experiment: ELISA (H3K27 methylation) assay in G401 cells. The class given is cell-based, human. Conditions: Homo sapiens, G-401, H3K27 methylation ELISA, read-out: (c) IC50 ELISA Qualified. Summed up: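 G401 cells treated 48 h with 3-fold dilutions (8 or 12 points, top 20 μM). Acid-extracted histones probed by ELISA for H3K27me3 or H3K27me2 with ECL readout, normalized to total H3. Percent inhibition versus DMSO fitted to dose-response curve for IC50.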
A general note: ELISA stands for enzyme-linked immunosorbent assay.

T1 sequence (O75530 whole entry): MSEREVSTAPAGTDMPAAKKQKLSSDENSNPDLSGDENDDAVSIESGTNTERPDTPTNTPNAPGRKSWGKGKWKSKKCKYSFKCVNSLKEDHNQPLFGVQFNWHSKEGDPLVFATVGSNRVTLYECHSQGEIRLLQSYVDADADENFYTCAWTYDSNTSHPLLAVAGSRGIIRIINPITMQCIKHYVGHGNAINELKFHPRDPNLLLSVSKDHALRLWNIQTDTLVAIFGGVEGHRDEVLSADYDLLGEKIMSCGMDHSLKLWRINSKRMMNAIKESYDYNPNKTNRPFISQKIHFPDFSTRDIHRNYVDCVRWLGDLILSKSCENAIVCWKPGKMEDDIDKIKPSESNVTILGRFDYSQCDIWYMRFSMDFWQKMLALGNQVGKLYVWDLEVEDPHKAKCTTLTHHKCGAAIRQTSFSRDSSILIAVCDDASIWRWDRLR
Sequence of wild type PRC2 (wtPRC2) complex (O75530 whole entry): as above
Sequence of wild type PRC2 (wtPRC2) complex (Q15910 whole entry partner): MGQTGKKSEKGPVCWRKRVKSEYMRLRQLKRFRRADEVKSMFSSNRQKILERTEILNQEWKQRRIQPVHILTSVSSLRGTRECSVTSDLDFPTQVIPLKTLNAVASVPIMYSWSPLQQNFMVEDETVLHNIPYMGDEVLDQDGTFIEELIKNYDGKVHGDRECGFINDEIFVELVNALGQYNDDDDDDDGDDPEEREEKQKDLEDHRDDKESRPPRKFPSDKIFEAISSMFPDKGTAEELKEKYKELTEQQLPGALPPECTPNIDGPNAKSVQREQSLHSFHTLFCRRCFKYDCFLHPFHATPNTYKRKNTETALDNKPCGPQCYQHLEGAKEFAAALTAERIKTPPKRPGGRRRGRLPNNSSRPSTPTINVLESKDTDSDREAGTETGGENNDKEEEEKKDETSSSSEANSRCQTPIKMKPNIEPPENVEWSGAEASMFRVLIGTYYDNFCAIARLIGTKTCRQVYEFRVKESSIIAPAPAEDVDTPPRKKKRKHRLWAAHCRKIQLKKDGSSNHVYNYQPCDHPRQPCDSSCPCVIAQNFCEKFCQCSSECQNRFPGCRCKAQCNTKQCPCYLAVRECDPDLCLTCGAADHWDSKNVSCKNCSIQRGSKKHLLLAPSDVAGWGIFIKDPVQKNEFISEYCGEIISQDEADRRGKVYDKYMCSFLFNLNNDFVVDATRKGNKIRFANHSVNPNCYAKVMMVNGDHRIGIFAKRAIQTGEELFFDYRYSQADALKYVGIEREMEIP
Sequence of wild type PRC2 (wtPRC2) complex (Q15022 whole entry partner): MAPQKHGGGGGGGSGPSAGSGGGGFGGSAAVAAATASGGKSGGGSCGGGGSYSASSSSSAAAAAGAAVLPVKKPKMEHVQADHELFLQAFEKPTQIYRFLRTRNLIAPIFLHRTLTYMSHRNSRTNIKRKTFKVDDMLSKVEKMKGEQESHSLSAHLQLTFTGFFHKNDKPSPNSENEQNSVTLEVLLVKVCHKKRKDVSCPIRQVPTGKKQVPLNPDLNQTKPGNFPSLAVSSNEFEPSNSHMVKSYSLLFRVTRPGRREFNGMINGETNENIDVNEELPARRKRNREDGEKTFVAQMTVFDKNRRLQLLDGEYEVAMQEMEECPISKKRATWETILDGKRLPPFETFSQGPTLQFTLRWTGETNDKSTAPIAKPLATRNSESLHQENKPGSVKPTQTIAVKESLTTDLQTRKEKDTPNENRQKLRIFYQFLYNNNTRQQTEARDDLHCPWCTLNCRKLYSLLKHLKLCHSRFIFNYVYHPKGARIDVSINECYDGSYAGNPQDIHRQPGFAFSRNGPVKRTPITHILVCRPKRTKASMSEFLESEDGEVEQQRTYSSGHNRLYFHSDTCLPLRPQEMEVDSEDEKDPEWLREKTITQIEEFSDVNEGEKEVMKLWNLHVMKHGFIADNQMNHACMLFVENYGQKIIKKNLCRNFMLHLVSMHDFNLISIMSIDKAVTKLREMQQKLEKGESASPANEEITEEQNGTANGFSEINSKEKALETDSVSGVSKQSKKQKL
Sequence of wild type PRC2 (wtPRC2) complex (Q09028 whole entry partner): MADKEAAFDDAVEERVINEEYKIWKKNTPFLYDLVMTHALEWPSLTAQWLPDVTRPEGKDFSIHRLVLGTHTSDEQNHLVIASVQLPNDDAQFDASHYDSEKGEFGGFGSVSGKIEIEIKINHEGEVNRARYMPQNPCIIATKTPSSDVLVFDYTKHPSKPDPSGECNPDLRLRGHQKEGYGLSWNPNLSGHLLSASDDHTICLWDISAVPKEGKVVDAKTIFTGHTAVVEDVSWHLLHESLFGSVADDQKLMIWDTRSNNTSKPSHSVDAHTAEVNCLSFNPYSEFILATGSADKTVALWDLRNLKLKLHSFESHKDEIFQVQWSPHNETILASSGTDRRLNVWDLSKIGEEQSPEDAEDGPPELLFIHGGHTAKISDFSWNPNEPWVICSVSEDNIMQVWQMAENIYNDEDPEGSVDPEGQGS
Sequence of wild type PRC2 (wtPRC2) complex (Q6ZN18 whole entry partner): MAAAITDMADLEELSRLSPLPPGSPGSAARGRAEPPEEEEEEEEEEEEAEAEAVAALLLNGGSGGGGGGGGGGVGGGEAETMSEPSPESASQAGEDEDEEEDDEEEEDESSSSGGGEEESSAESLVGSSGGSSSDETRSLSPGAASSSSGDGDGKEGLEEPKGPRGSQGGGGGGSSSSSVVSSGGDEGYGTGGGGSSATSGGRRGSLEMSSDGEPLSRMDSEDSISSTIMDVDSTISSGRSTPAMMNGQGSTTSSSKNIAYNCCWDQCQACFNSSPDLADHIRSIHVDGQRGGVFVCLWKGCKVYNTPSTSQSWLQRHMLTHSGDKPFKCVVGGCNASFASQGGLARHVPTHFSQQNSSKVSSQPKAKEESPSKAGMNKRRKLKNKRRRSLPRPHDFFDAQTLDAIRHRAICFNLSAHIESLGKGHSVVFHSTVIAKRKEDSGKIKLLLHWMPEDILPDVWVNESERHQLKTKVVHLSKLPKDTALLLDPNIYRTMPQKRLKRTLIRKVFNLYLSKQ

On to `COc1cccc(F)c1CNc1ccc(-c2cc(C)ncc2C)c2nncn12` [Example 305, 8-(2,5-dimethylpyridin-4-yl)-N-(2-fluoro-6-methoxybenzyl)-[1,2,4]triazolo[4,3-a] pyridin-5-amine], for which the IC50 (in general, the point on the concentration scale where inhibition reaches its midpoint) in experiment [1] turned out to be 52.6 nM; in experiment [2], 94.6 nM; in experiment [3] it was 28.2 nM.
Turning to `COc1cccc(F)c1CNc1ccc(-c2cc(C(F)F)ncc2C)c2nncn12` [Example 306, 8-(2-(difluoromethyl)-5-methylpyridin-4-yl)-N-(2-fluoro-6-methoxybenzyl)-[1,2,4]triazolo[4,3-a]pyridin-5-amine], the IC50 in experiment [1] was found to be 30.9 nM; in experiment [2] it was 41.8 nM; in experiment [3], 15.5 nM.
The like results for `COc1cc(C)c(-c2ccc(NCc3c(F)cccc3OC)n3cnnc23)cn1` [Example 308, N-(2-fluoro-6-methoxybenzyl)-8-(6-methoxy-4-methylpyridin-3-yl)-[1,2,4] triazolo[4,3-a]pyridin-5-amine] were, in that order, 18.6 nM, 117 nM and 17.4 nM.
For `COc1cccc(F)c1CNc1ccc(-c2ccc(O)nc2C)c2nncn12` [Example 309, 5-(5-((2-fluoro-6-methoxybenzyl)amino)-[1,2,4]triazolo[4,3-a]pyridin-8-yl)-6-methylpyridin-2-ol], in that order: 15.8 nM, 60.6 nM and 11.6 nM.
The like results for `COc1ccc(-c2ccc(NCc3c(F)cccc3OC)n3cnnc23)c(C)n1` [Example 310, N-(2-fluoro-6-methoxybenzyl)-8-(6-methoxy-2-methylpyridin-3-yl)-[1,2,4] triazolo[4,3-a]pyridin-5-amine] were, in that order, 13.6 nM, 56.1 nM and 16.6 nM.
As for `COc1cccc(F)c1CNc1ccc(-c2cn(CCO)nc2C(F)(F)F)c2nncn12` [Example 312, 2-(4-(5-((2-fluoro-6-methoxybenzyl)amino)-[1,2,4]triazolo[4,3-a]pyridin-8-yl)-3-(trifluoromethyl)-1H-pyrazol-1-yl)ethanol], the IC50 in experiment [1] turned out to be 31.2 nM; in experiment [2], 171 nM; in experiment [3] it was 22.5 nM.
As for `COc1cccc(F)c1CNc1ccc(-c2cn(C)nc2C(F)F)c2nncn12` [Example 313, 8-(3-(difluoromethyl)-1-methyl-1H-pyrazol-4-yl)-N-(2-fluoro-6-methoxybenzyl)-[1,2,4]triazolo[4,3-a]pyridin-5-amine], the IC50 in experiment [1] came out at 3.4 nM; in experiment [2] it was 14.7 nM; in experiment [3] it was 4 nM.
On to `COc1cc(F)cc(F)c1CNc1ccc(-c2ccc(C)nc2C(F)F)c2nncn12` [Example 314, N-(2,4-difluoro-6-methoxybenzyl)-8-(2-(difluoromethyl)-6-methylpyridin-3-yl)-[1,2,4]triazolo [4,3-a]pyridin-5-amine], for which the IC50 in experiment [1] came to 22.3 nM; in experiment [2] it was 110 nM; in experiment [3] it was 18.6 nM.
The like results for `COc1cccc(F)c1CNc1ccc(-c2ccc(C)nc2C(F)F)c2nncn12` [Example 315, 8-(2-(difluoromethyl)-6-methylpyridin-3-yl)-N-(2-fluoro-6-methoxybenzyl)-[1,2,4]triazolo[4,3-a]pyridin-5-amine] were, in that order, 7.7 nM, 21.5 nM and 7.8 nM.
The like results for `COc1cccc(F)c1CNc1ccc(-c2cnc(C)cc2C(F)F)c2nncn12` [Example 316, 8-(4-(difluoromethyl)-6-methylpyridin-3-yl)-N-(2-fluoro-6-methoxybenzyl)-[1,2,4]triazolo[4,3-a]pyridin-5-amine] were, in that order, 15.7 nM, 215 nM and 17.3 nM.
On to `COc1cc(F)cc(F)c1CNc1ccc(-c2cnc(C)cc2C(F)F)c2nncn12` [Example 317, N-(2,4-difluoro-6-methoxybenzyl)-8-(4-(difluoromethyl)-6-methylpyridin-3-yl)-[1,2,4]triazolo [4,3-a]pyridin-5-amine], for which the results for the IC50 in experiment [1], in experiment [2] and in experiment [3] were 35.6 nM, 218 nM and 53.2 nM, respectively.
Regarding `COc1ccc(-c2ccc(NCc3c(F)cc(F)cc3OC)n3cnnc23)c(C)n1` [Example 319, N-(2,4-difluoro-6-methoxybenzyl)-8-(6-methoxy-2-methylpyridin-3-yl)-[1,2,4] triazolo[4,3-a]pyridin-5-amine], the values for the IC50 in experiment [1], in experiment [2] and in experiment [3] were 28.5 nM, 130 nM and 40.7 nM, respectively.
The like results for `COc1ncc(-c2ccc(NCc3c(F)cccc3OC)n3cnnc23)c(C)n1` [Example 322, N-(2-fluoro-6-methoxybenzyl)-8-(2-methoxy-4-methylpyrimidin-5-yl)-[1,2,4]triazolo[4,3-a]pyridin-5-amine] were, in that order, 9.1 nM, 32.3 nM and 7.1 nM.
For the compound `COc1ncc(-c2ccc(NCc3c(F)cc(F)cc3OC)n3cnnc23)c(C)n1` [Example 323, N-(2,4-difluoro-6-methoxybenzyl)-8-(2-methoxy-4-methylpyrimidin-5-yl)-[1,2,4]triazolo[4,3-a]pyridin-5-amine], the values for the IC50 in experiment [1], in experiment [2] and in experiment [3] were 24.6 nM, 31.2 nM and 14.3 nM, respectively.
As for `COc1cc(F)cc(F)c1CNc1ccc(-c2ccc(C#N)nc2C)c2nncn12` [Example 324, 5-(5-((2,4-difluoro-6-methoxybenzyl)amino)-[1,2,4]triazolo[4,3-a]pyridin-8-yl)-6-methylpicolinonitrile], the IC50 turned out to be 17.9 nM in experiment [1], 63.8 nM in experiment [2] and 15.9 nM in experiment [3].
As for `COc1cccc(F)c1CNc1ccc(-c2cnccn2)c2nncn12` [Example 325, N-(2-fluoro-6-methoxybenzyl)-8-(pyrazin-2-yl)-[1,2,4]triazolo[4,3-a]pyridin-5-amine], the IC50 in experiment [1] was found to be 37 nM; in experiment [2], 141 nM; in experiment [3], 33.8 nM.
For `COc1cccc(F)c1CNc1ccc(-c2cc(Cl)cnc2C)c2nncn12` [Example 326, 8-(5-chloro-2-methylpyridin-3-yl)-N-(2-fluoro-6-methoxybenzyl)-[1,2,4]triazolo[4,3-a] pyridin-5-amine], in that order: 26.1 nM, 71.6 nM and 29.8 nM.
For `COc1c(F)ccc(F)c1CNc1ccc(-c2cccnc2C)c2nncn12` [Example 327, N-(3,6-difluoro-2-methoxybenzyl)-8-(2-methylpyridin-3-yl)-[1,2,4]triazolo[4,3-a] pyridin-5-amine], in that order: 48.3 nM, 172 nM and 51.9 nM.
Consider `COc1ncccc1CNc1ccc(-c2cccnc2C)c2nncn12` [Example 328, N-((2-methoxypyridin-3-yl)methyl)-8-(2-methylpyridin-3-yl)-[1,2,4]triazolo[4,3-a] pyridin-5-amine], for which the figures for the IC50 in experiment [1], in experiment [2] and in experiment [3] were 73.5 nM, 284 nM and 76.3 nM, respectively.
Turning to `COc1cc(F)cc(F)c1CNc1ccc(-c2cnc(C)cc2C)c2nncn12` [Example 329, N-(2,4-difluoro-6-methoxybenzyl)-8-(4,6-dimethylpyridin-3-yl)-[1,2,4]triazolo [4,3-a]pyridin-5-amine], the IC50 in experiment [1] is 31.1 nM; in experiment [2], 1360 nM; in experiment [3], 48 nM.
Take `COc1cccc(F)c1CNc1ccc(-c2cn(C)nc2CO)c2nncn12` [Example 330, (4-(5-((2-fluoro-6-methoxy benzyl)amino)-[1,2,4]triazolo[4,3-a]pyridin-8-yl)-1-methyl-1H-pyrazol-3-yl) methanol]: the figures for the IC50 in experiment [1], in experiment [2] and in experiment [3] were 24 nM, 96.2 nM and 24 nM, respectively.
For the compound `COc1cccc(F)c1CNc1ccc(-c2cnc(OC(C)C)nc2C)c2nncn12` [Example 332, N-(2-fluoro-6-methoxybenzyl)-8-(2-isopropoxy-4-methylpyrimidin-5-yl)-[1,2,4] triazolo[4,3-a]pyridin-5-amine], the values for the IC50 in experiment [1], in experiment [2] and in experiment [3] were 8.2 nM, 26.6 nM and 7.3 nM, respectively.
The like results for `COc1c(F)ccc(F)c1CNc1ccc(-c2cnc(C)nc2C)c2nncn12` [Example 333, N-(3,6-difluoro-2-methoxybenzyl)-8-(2,4-dimethylpyrimidin-5-yl)-[1,2,4] triazolo[4,3-a]pyridin-5-amine] were, in that order, 95.1 nM, 286 nM and 67.6 nM.
For `COc1c(F)ccc(F)c1CNc1ccc(-c2ccc(S(C)(=O)=O)nc2C)c2nncn12` [Example 334, N-(3,6-difluoro-2-methoxybenzyl)-8-(2-methyl-6-(methylsulfonyl)pyridin-3-yl)-[1,2,4]triazolo[4,3-a] pyridin-5-amine], in that order: 38 nM, 144 nM and 31.6 nM.
With `COc1cccc(Cl)c1CNc1ccc(-c2cccnc2C)c2nncn12` [Example 335, N-(2-chloro-6-methoxybenzyl)-8-(2-methylpyridin-3-yl)-[1,2,4]triazolo[4,3-a] pyridin-5-amine], the 50% inhibitory concentration (IC50) in experiment [1] worked out at 84.5 nM; in experiment [2] it was 254 nM; in experiment [3] it was 318 nM.
